Results as given in patent publication US7960395B2, “5,7-disubstituted thiazolo[4,5-d]pyrimidines for the selective inhibition of chemokine receptors” (AstraZeneca AB, priority 2006, dated 2011).

The molecules below were run against T1, hCX3CR1 (Homo sapiens, UniProt P49238) (assay: in vitro hCX3CR1 binding assay ([125I]-fractalkine competition binding, membranes)). Conditions: final compounds.
T1 construct: expressed in transfected cells; host or cells: human embryonic kidney suspension (HEKS) 293 cells stably expressing chimeric G-protein Gαqi5; membranes prepared from them
T1 sequence (P49238 1-355): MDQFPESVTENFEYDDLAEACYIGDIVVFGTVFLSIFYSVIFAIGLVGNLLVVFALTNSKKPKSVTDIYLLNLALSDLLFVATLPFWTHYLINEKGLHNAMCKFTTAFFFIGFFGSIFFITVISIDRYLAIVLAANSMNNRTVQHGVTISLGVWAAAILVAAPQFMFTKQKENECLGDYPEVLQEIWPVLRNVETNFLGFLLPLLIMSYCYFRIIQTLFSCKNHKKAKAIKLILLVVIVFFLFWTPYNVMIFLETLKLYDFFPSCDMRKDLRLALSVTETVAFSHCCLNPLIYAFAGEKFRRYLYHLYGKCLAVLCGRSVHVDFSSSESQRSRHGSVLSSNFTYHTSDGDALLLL
Text: Recombinant human fractalkine (hCX3CL1) and recombinant human interleukin-8 (IL-8 or hCXCL8) were purchased from PeproTech Inc., UK. Recombinant [^125I]-fractalkine (human) and [^125I]hIL-8 with the specific activity of 2200 Ci/mmol, was purchased from NEN® Life Science Products, Inc., UK. Fluo-4-AM was purchased from Molecular Probes, US. All other chemicals were of analytical grade.
The complete human CX3CR1 cDNA (GenBank accession number U20350) was extracted from human brain mRNA (Superscript, Life Technologies) and ligated into pCR-Blunt II TOPO vector (InVitrogen). The insert corresponding hCX3CR1 was isolated and further subcloned into pcDNA3.1zeo. Plasmid DNA was prepared using Plasmid Midi Kit (Qiagen). Using Superfect Transfection Reagent (Qiagen) according to the manufacturer's protocol the expression plasmid for hCX3CR1 was then introduced into human embryonic kidney suspension (HEKS) 293 cell line containing a vector for stable expression of a chimeric G-protein Gαqi5. A stable clone was generated utilizing zeocin (500 μg/mL) and hygromycin (100 μg/mL) selection. For further applications the cells were maintained in Dulbecco's modified Eagle's medium/Ham's nutrient mix F12 (DMEM/F12) containing pyridoxine and supplemented with 10% (v/v) fetal bovine serum, 2 mM L-glutamine, 100 U/ml penicillin and […] streptomycin, 250 μg/mL zeocin and 100 μg/mL hygromycin.
Cells are grown at 37° C. and 5% CO2 and harvested at 60-80% confluence in buffer containing 10 mM Tris-HCl pH 7.4, 5 mM EDTA, 0.1 mg/mL bacitracin. The cells are centrifuged at 300×g for 10 min and the pellet is resuspended in harvesting buffer (10 mM Tris-HCl, pH 7.4, 5 mM ethylenediaminetetra-aceticacid (EDTA) and 0.1 mg/mL bacitracin), pooled and homogenised using a Dounce homogeniser. The homogenate is centrifuged in 48000×g for 10 min and resuspended in harvesting buffer using Ultra-Turrax T8. Membrane aliquots are stored at −80° C. Protein concentration was determined in microtiter plates as described by Harrington (1990, Anal. Biochem. 186, 285-287).
Competition binding studies of [^125I]fraktalkine were performed in 2 mL 96-deep-well plates (Beckman, Germany) in a total volume of 1000 μL/well. Each well contained […] [^125I]-fractalkine and membrane equivalent to receptor concentration of 1 μM in assay buffer (50 mM Hepes-KOH, pH 7.4, 10 mM MgCl2, 1 mM EDTA, 0.1% (w/v) gelatine). Ten concentrations (2 points/log unit) of the test compounds were pre-dissolved in DMSO and added to reach a final concentration of 1% (v/v) DMSO. The assay was initiated with the addition of membranes and incubated at 25° C. for 24 h. The reactions were stopped by rapid filtration through Whatman GF/B glass fiber filters pretreated with 0.3% polyethylimine and subsequent washing with ice-cold buffer (10 mM Hepes-KOH pH 7.4, 500 mM NaCl) using a Brandel receptor binding harvester. Scintillation cocktail was added and radioactivity was determined in a Packard 2500TR liquid scintillation counter. (Perkin Elmer, USA)
`CC(C)C[C@H](CO)Nc1nc(S[C@@H](C)c2ccc(Cl)cn2)nc2[nH]c(=O)sc12` [Example 1, 5-{[(1S)-1-(5-Chloropyridin-2-yl)ethyl]thio}-7-{[(1R)-1-(hydroxymethyl)-3-methylbutyl]amino}[1,3]thiazolo[4,5-d]pyrimidin-2(3H)-one] gave a Ki of 5.8 nM.
`CC(C)C[C@H](CO)Nc1nc(S[C@@H](C)c2ccc(F)cn2)nc2[nH]c(=O)sc12` [Example 2, 5-{[(1S)-1-(5-Fluoropyridin-2-yl)ethyl]thio}-7-{[(1R)-1-(hydroxymethyl)-3-methylbutyl]amino}[1,3]thiazolo[4,5-d]pyrimidin-2(3H)-one] showed a Ki of 20 nM.
Work on `CC(C)C[C@H](CO)Nc1nc(S[C@@H](C)c2ncccc2F)nc2[nH]c(=O)sc12` [Example 4, 5-{[(1S)-1-(3-Fluoropyridin-2-yl)ethyl]thio}-7-{[(1R)-1-(hydroxymethyl)-3-methylbutyl]amino}[1,3]thiazolo[4,5-d]pyrimidin-2(3H)-one] yielded a Ki of 18 nM.
`CCC[C@H](CO)Nc1nc(S[C@@H](C)c2ccc(Cl)nc2)nc2[nH]c(=O)sc12` [Example 6, 5-{[(1S)-1-(6-Chloropyridin-3-yl)ethyl]thio}-7-{[(1R)-1-(hydroxymethyl)butyl]amino}[1,3]thiazolo[4,5-d]pyrimidin-2(3H)-one] showed a Ki of 21.4 nM.
Work on `CCC[C@H](CO)N(C)c1nc(S[C@@H](C)c2ccc(Cl)nc2)nc2[nH]c(=O)sc12` [Example 7, 5-{[(1S)-1-(6-Chloropyridin-3-yl)ethyl]thio}-7-[[(1R)-1-(hydroxymethyl)butyl](methyl)amino][1,3]thiazolo[4,5-d]pyrimidin-2(3H)-one] yielded a Ki of 440 nM.
`CC(C)C[C@H](CO)Nc1nc(S[C@H](C)c2ccncc2F)nc2[nH]c(=O)sc12` [Example 8a, 5-{[(1R)-1-(3-Fluoropyridin-4-yl)ethyl]thio}-7-{[(1R)-1-(hydroxymethyl)-3-methylbutyl]amino}[1,3]thiazolo[4,5-d]pyrimidin-2(3H)-one] gave a Ki of 97 nM.
In the case of `CC(C)C[C@H](CO)Nc1nc(S[C@@H](C)c2ccncc2F)nc2[nH]c(=O)sc12` [Example 8b, 5-{[(1S)-1-(3-Fluoropyridin-4-yl)ethyl]thio}-7-{[(1R)-1-(hydroxymethyl)-3-methylbutyl]amino}[1,3]thiazolo[4,5-d]pyrimidin-2(3H)-one], the Ki is reported as 1.5 nM.
